In patent publication US6706700B2, “14β,15β-methylene-17α-hydroxymethyl-androgens” (Akzo-Nobel, N.V., priority 1999, dated 2004):

Legend:
[1] = tested on: human androgen receptor; assay: androgenic activity rating (procedures described above; which test underlies the rating is not stated); set-up: key: −: no androgenic activity found; +: androgenic activity found; ++: high androgenic activity; +++: excellent androgenic activity; prodrug; details: compounds of the invention; rating scheme of Example 18
Experimental: Androgenic activity can be measured in various ways. Thus, the potency of androgens can be determined in vitro using the cytoplasmic androgen receptor from human breast tumor cells (MCF-7 cell line); see Bergink, E. W. et al, Comparison of the receptor binding properties of nandrolone and testosterone under in vitro and in vivo conditions, J. Steroid Biochem. 22, 831-836 (1985). It is also possible to use Chinese hamster ovary (CHO) cells transfected with the human androgen receptor (incubation time 16 h, temperature 4° C.) and compared with the affinity of 5α-dihydrotestosterone [according to the procedure described by Bergink, E. W. et al, J. Steroid Biochem. 19, 1563-1570 (1983)]. The transactivative androgen activity of the compounds of the invention can be measured, e.g. in Chinese hamster ovary cells (CHO) transfected with the human androgen receptor (hAR), in combination with a mouse mammary tumor virus (MMTV), and luciferase receptor gene (incubation time 16 h, temperature 37° C.) and compared with the activity of 5α-dihydrotestosterone [according to the procedure described by Schoonen, W. G. E. J. et al, Analyt. Biochem. 261, 222-224 (1998)]. For the in vivo potency determination of androgens the classical Hershberger test can be used. In this test the androgenic (increase in prostate weight) and anabolic activities [increase of the musculus levator ani (MLA)] of a compound are tested in immature castrated rats after daily administration for 7 days; see Hershberger, L. G. et al, Myotrophic activity of 19-Nortestosterone and other steroids determined by modified levator ani muscle method, Proceedings of the society for experimental biology and medicine 83, 175-180 (1953). Additionally, the effect of an androgenic compound on LH suppression can be tested in mature castrated rats according to Kumar, N. et al, The biological activity of 7alpha-methyl-19-nortestosterone is not amplified in male reproductive tract as is that of testosterone, Endocrinology 130, 3677-3683 (1992).
The compounds according to the invention and four reference compounds were tested for drogenic activity (the procedures for which have been described above) and rated according the following scheme: […]

C[C@@H]1CC2=CC(=O)CC[C@@H]2[C@H]2CC[C@]3(C)[C@H](CO)C[C@H]4C[C@]43[C@@H]21 [Example 1, (7α,14β,15β,17α)-17-(Hydroxymethyl)-7-methyl-14,15-methyleneestr-4-en-3-one]
Res. (androgenic activity) [1]: +++
melting point: 137 to 140 °C

C[C@@H]1CC2=C(CCC(=O)C2)[C@H]2CC[C@]3(C)[C@H](CO)C[C@H]4C[C@]43[C@H]12 [Example 2, (7α,14,β15β,17α)-17-(Hydroxymethyl)-7-methyl-14,15-methyleneestr-5(10)-en-3-one]
Res. (androgenic activity) [1]: +

C[C@@H]1CC2=CC(=O)CCC2=C2CC[C@]3(C)[C@H](CO)C[C@H]4C[C@]43[C@@H]21 [Example 3, (7α,14β,15β17α)-17-(Hydroxymethyl)-7-methyl-14,15-methyleneestra-4,9-dienes-3-one]
Res. (androgenic activity) [1]: ++

CC1=C2C[C@@H](C)[C@@H]3[C@H](CC[C@]4(C)[C@H](CO)C[C@H]5C[C@@]534)[C@H]2CCC1=O [Example 4, (7α,14β,15β,17α)-17-(Hydroxymethyl)-4,7-dimethyl-14,15-methyleneestr-4-en-3-one]
Res. (androgenic activity) [1]: ++

CC[C@@H]1CC2=CC(=O)CC[C@@H]2[C@H]2CC[C@]3(C)[C@H](CO)C[C@H]4C[C@]43[C@H]12 [Example 5, (7α,14β,15β,17α)-7-Ethyl-17-(hydroxymethyl)-14,15-methyleneestr-4-en-3-one]
Res. (androgenic activity) [1]: ++

CC[C@]12CC[C@H]3[C@@H]([C@H](C)CC4=CC(=O)CC[C@@H]43)[C@]13C[C@@H]3C[C@H]2CO [Example 6, (7α,14β,15β,17α)-13-Ethyl-17-(hydroxymethyl)-7-methyl-14,15-methylenegon-4-en-3-one]
Res. (androgenic activity) [1]: +++

C[C@H]1[C@H]2C[C@]23[C@H]2[C@H](CC[C@]3(C)[C@@H]1CO)[C@H]1CCC(=O)C=C1C[C@H]2C [Example 7, (7α,14β,15β16β,17α)-17-(Hydroxymethyl)-7,16-dimethyl-14,15-methyleneestra-4-en-3-one]
Res. (androgenic activity) [1]: +

C[C@@H]1CC2=CC(=O)CC[C@@H]2[C@H]2CC[C@]3(C)[C@](O)(CO)C[C@H]4C[C@]43[C@@H]21 [Example 8, (7α,14β,15β,17β)-17-Hydroxy-17-(hydroxymethyl)-7-methyl-14,15-methyleneestr-4-en-3-one]
Res. (androgenic activity) [1]: +

CC(=O)OC[C@]1(F)C[C@H]2C[C@]23[C@H]2[C@H](CC[C@]13C)[C@H]1CCC(=O)C=C1C[C@H]2C [Example 9a, (7α,14β,15β,17β)-17-[(Acetyloxy)methyl]-17-fluoro-7-methyl-14,15-methyleneestr-4-en-3-one]
Res. (androgenic activity) [1]: ++

C[C@@H]1CC2=CC(=O)CC[C@@H]2[C@H]2CC[C@]3(C)[C@](F)(CO)C[C@H]4C[C@]43[C@@H]21 [Example 9b, (7α,14β,15β,17β)-17-fluoro-17-(hydroxymethyl)-7-methyl-14,15-methyleneestra-4-en-3-one]
Res. (androgenic activity) [1]: ++

CC(=O)OC[C@]1(F)C[C@H]2C[C@]23[C@@H]2[C@H](C)CC4=C(CCC(=O)C4)[C@H]2CC[C@]13C [Example 10, (7α,14β,15β,17β)-17-[(Acetyloxy)methyl]-17-fluoro-7-methyl-14,15-methyleneestr-5(10)-en-3-one]
Res. (androgenic activity) [1]: +

C[C@H](O)[C@@H]1C[C@H]2C[C@]23[C@H]2[C@H](CC[C@]13C)[C@H]1CCC(=O)C=C1C[C@H]2C [Example 11a, (7α,14β,15β,17α,20S)-20-Hydroxy-7-methyl-14,15-methylene-19-norpregn-4-en-3-one]
Res. (androgenic activity) [1]: ++

C[C@@H]1CC2=CC(=O)CC[C@@H]2[C@H]2CC[C@]3(C)[C@H]([C@@H](C)O)C[C@H]4C[C@]43[C@@H]21 [Example 11b, (7α,14β,15β,17α,20R)-20-hydroxy-7-methyl-14,15-methylene-19-norpregn-4-en-3-one]
Res. (androgenic activity) [1]: +

C[C@@H]1CC2=CC(=O)CC[C@@H]2[C@H]2CC[C@]3(C)[C@H](C(C)(C)O)C[C@H]4C[C@]43[C@@H]21 [Example 12, (7α,14β,15β,17α)-20-Hydroxy-7,20-dimethyl-14,15-methylene-19-norpregn-4-en-3-one]
Res. (androgenic activity) [1]: +

CC[C@H](O)[C@@H]1C[C@H]2C[C@]23[C@H]2[C@H](CC[C@]13C)[C@H]1CCC(=O)C=C1C[C@H]2C [Example 13]
Res. (androgenic activity) [1]: +

CC(=O)OC[C@@H]1C[C@H]2C[C@]23[C@H]2[C@H](CC[C@]13C)[C@H]1CCC(=O)C=C1C[C@H]2C [Example 14]
Res. (androgenic activity) [1]: ++

C[C@@H]1CC2=C[C@@H](O)CC[C@@H]2[C@H]2CC[C@]3(C)[C@H](CO)C[C@H]4C[C@]43[C@@H]21 [Example 15a, (3β,7α,14β,15β,17α)-3-Hydroxy-7-methyl-14,15-methyleneestr-4-ene-17-methanol]
Res. (androgenic activity) [1]: +++

C[C@@H]1CC2=C(CC[C@H](O)C2)[C@H]2CC[C@]3(C)[C@H](CO)C[C@H]4C[C@]43[C@H]12 [Example 15b1]
Res. (androgenic activity) [1]: pro

C[C@@H]1CC2=C(CC[C@@H](O)C2)[C@H]2CC[C@]3(C)[C@H](CO)C[C@H]4C[C@]43[C@H]12 [Example 15b2, (3α,7α,14β,15β,17α)-3-Hydroxy-7-methyl-14,15-methyleneestr-5(10)-ene-17-methanol]
Res. (androgenic activity) [1]: Pro

C[C@@H]1CC2=C[C@@H](O)CC[C@@H]2[C@H]2CC[C@]3(C)[C@](O)(CO)C[C@H]4C[C@]43[C@@H]21 [Example 15c1, (3β,7α,14β,15β,17β)-3,17-Dihydroxy-7-methyl-14,15-methyleneestr-4-ene-17methanol]
Res. (androgenic activity) [1]: +

C[C@@H]1CC2=C[C@H](O)CC[C@@H]2[C@H]2CC[C@]3(C)[C@](O)(CO)C[C@H]4C[C@]43[C@@H]21 [Example 15c2, (3α,7α,15β,17β)-3,17-Dihydroxy-7-methyl-14,15-methyleneestr-4-ene-17-methanol]
Res. (androgenic activity) [1]: +
